Columns and labels:
melanotic melanoma B16 = experiment: Melanotic Melanoma B16 test; type: in vivo, C57BC/6 mice; conditions: days 1 through 9
In short: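 C57BC/6 mice (10 per group) were implanted i.p. with B16 melanoma homogenate, then dosed i.p. on days 1–9 at various doses.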

[1] = system: lymphocytic leukemia P388; experiment: Lymphocytic leukemia P388 test (intraperitoneal administration); type: in vivo, DBA/2 mice; conditions: days 1, 5 and 9
In short: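 DBA/2 mice, single sex, 5-6 per group, inoculated i.p. with 10^6 P388 leukemia cells. Compounds given i.p. at various doses on days 1, 5 and 9; survival followed 30 days, reporting median survival time and treated/control (T/C) survival ratio.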

## CNCCNCCNC1=C2C(=O)c3c(O)ccc(O)c3C(=O)C2=C(NCCNCCNC)CC1 [Leuco-1,4-bis[2-(2-methylaminoethylamino)ethylamino]-5,8-dihydroxyanthraquinone]
Melanotic melanoma B16; 6.2 mg./kg. i.p.
  Median Survival Time: 28.5 days
Melanotic melanoma B16; 12.5 mg./kg. i.p.
  Median Survival Time: 39.5 days
Melanotic melanoma B16; 25 mg./kg. i.p.
  Median Survival Time: 35.0 days
Melanotic melanoma B16; 50 mg./kg. i.p.
  Median Survival Time: 12.5 days
Melanotic melanoma B16; Mus musculus, ip, 6.2 mg./kg. i.p., efficacy ≥125%, read-out: T/C × 100
  response vs control in vivo at 6.2 mg/kg: 168%
Melanotic melanoma B16; Mus musculus, ip, 12.5 mg./kg. i.p., efficacy ≥125%, read-out: T/C × 100
  response vs control in vivo at 12.5 mg/kg: 232%
Melanotic melanoma B16; Mus musculus, ip, 25 mg./kg. i.p., efficacy ≥125%, read-out: T/C × 100
  response vs control in vivo at 25 mg/kg: 206%
Melanotic melanoma B16; Mus musculus, ip, 50 mg./kg. i.p., efficacy ≥125%, read-out: T/C × 100
  response vs control in vivo at 50 mg/kg: 73%
[1]; 6.2 mg./kg. i.p.
  Median Survival Time: 15.0 days
[1]; 12.5 mg./kg. i.p.
  Median Survival Time: 16.0 days
[1]; 25 mg./kg. i.p.
  Median Survival Time: 21.0 days
[1]; 50 mg./kg. i.p.
  Median Survival Time: 28.0 days
[1]; 100 mg./kg. i.p.
  Median Survival Time: 26.0 days
[1]; 200 mg./kg. i.p.
  Median Survival Time: 2.0 days
[1]; Mus musculus, P388, ip, 6.2 mg./kg. i.p., efficacy ≥125%, read-out: T/C × 100
  response vs control in vivo at 6.2 mg/kg: 136%
[1]; Mus musculus, P388, ip, 12.5 mg./kg. i.p., efficacy ≥125%, read-out: T/C × 100
  response vs control in vivo at 12.5 mg/kg: 145%
[1]; Mus musculus, P388, ip, 25 mg./kg. i.p., efficacy ≥125%, read-out: T/C × 100
  response vs control in vivo at 25 mg/kg: 191%
[1]; Mus musculus, P388, ip, 50 mg./kg. i.p., efficacy ≥125%, read-out: T/C × 100
  response vs control in vivo at 50 mg/kg: 255%
[1]; Mus musculus, P388, ip, 100 mg./kg. i.p., efficacy ≥125%, read-out: T/C × 100
  response vs control in vivo at 100 mg/kg: 236%
[1]; Mus musculus, P388, ip, 200 mg./kg. i.p., efficacy ≥125%, read-out: T/C × 100
  response vs control in vivo at 200 mg/kg: 18%
